Experimental data from ChEMBL document CHEMBL1201861, “Genomics of Drug Sensitity in Cancer screening data, Wellcome Trust Sanger Institute”.

The compounds below were run on DOHH-2 (assay: cells). Conditions: Homo sapiens, DOHH-2.
Format: functional, cell-based, Homo sapiens
Description: SANGER: Inhibition of human DOHH-2 cell growth in a cell viability assay.

SMILES	IC50 [nM]
NC(=O)Nc1cc(-c2cccc(F)c2)sc1C(=O)N[C@H]1CCCNC1 [AZD-7762]	131

The compounds below were run on DU-4475 (assay: cells). Conditions: Homo sapiens, DU-4475.
Format: functional, cell-based, Homo sapiens
Description: SANGER: Inhibition of human DU-4475 cell growth in a cell viability assay.

SMILES	IC50 [nM]
NC(=O)Nc1cc(-c2cccc(F)c2)sc1C(=O)N[C@H]1CCCNC1 [AZD-7762]	349

These compounds were tested on DoTc2-4510 (assay: cells). Conditions: Homo sapiens.
Format: functional, cell-based

SMILES	IC50 [nM]
NC(=O)Nc1cc(-c2cccc(F)c2)sc1C(=O)N[C@H]1CCCNC1 [AZD-7762]	782

Each compound was assayed on ES4 (assay: cells). Conditions: Homo sapiens, ES4.
Format: functional, cell-based, Homo sapiens
Description: SANGER: Inhibition of human ES4 cell growth in a cell viability assay.

SMILES	IC50 [nM]
NC(=O)Nc1cc(-c2cccc(F)c2)sc1C(=O)N[C@H]1CCCNC1 [AZD-7762]	32.5

Each compound was assayed on HCE-T (assay: cells). Conditions: Homo sapiens, HCE-T.
Format: functional, cell-based, Homo sapiens
Description: SANGER: Inhibition of human HCE-T cell growth in a cell viability assay.

SMILES	IC50 [nM]
NC(=O)Nc1cc(-c2cccc(F)c2)sc1C(=O)N[C@H]1CCCNC1 [AZD-7762]	442

What follows are compounds tested on HD-MY-Z (assay: cells). Conditions: Homo sapiens, HD-MY-Z.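 Note: growth inhibition of HD-MY-Z cells, read out with a cell viability assay.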
Format: functional, cell-based, Homo sapiens
Description: SANGER: Inhibition of human HD-MY-Z cell growth in a cell viability assay.

SMILES	IC50 [nM]
NC(=O)Nc1cc(-c2cccc(F)c2)sc1C(=O)N[C@H]1CCCNC1 [AZD-7762]	62.5

Each compound was assayed on HH (assay: cells). Conditions: Homo sapiens, HH.
Format: functional, cell-based, Homo sapiens
Description: SANGER: Inhibition of human HH cell growth in a cell viability assay.

SMILES	IC50 [nM]
NC(=O)Nc1cc(-c2cccc(F)c2)sc1C(=O)N[C@H]1CCCNC1 [AZD-7762]	708

These compounds were tested on IA-LM (assay: cells). Conditions: Homo sapiens.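 Note: cell viability assay measuring growth inhibition of human IA-LM cells.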
Format: functional, cell-based
Description: SANGER: Inhibition of human IA-LM cell growth in a cell viability assay.

SMILES	IC50 [nM]
NC(=O)Nc1cc(-c2cccc(F)c2)sc1C(=O)N[C@H]1CCCNC1 [AZD-7762]	1400

These compounds were tested on IST-MES1 (assay: cells). Conditions: Homo sapiens, IST-MES1.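 Note: growth inhibition of IST-MES1 cells, measured with a cell viability assay.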
Format: functional, cell-based, Homo sapiens
Description: SANGER: Inhibition of human IST-MES1 cell growth in a cell viability assay.

SMILES	IC50 [nM]
NC(=O)Nc1cc(-c2cccc(F)c2)sc1C(=O)N[C@H]1CCCNC1 [AZD-7762]	> 2000

Each compound was assayed on IST-SL1 (assay: cells). Conditions: Homo sapiens, IST-SL1.
Format: functional, cell-based, Homo sapiens
Description: SANGER: Inhibition of human IST-SL1 cell growth in a cell viability assay.

SMILES	IC50 [nM]
NC(=O)Nc1cc(-c2cccc(F)c2)sc1C(=O)N[C@H]1CCCNC1 [AZD-7762]	628

Each compound was assayed on JAR (assay: cells). Conditions: Homo sapiens, JAR.
Format: functional, cell-based, Homo sapiens
Description: SANGER: Inhibition of human JAR cell growth in a cell viability assay.

SMILES	IC50 [nM]
NC(=O)Nc1cc(-c2cccc(F)c2)sc1C(=O)N[C@H]1CCCNC1 [AZD-7762]	232

What follows are compounds tested on JVM-2 (assay: cells). Conditions: Homo sapiens, JVM-2.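 Note: growth inhibition of JVM-2 cells determined by a cell viability assay.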
Format: functional, cell-based, Homo sapiens
Description: SANGER: Inhibition of human JVM-2 cell growth in a cell viability assay.

SMILES	IC50 [nM]
NC(=O)Nc1cc(-c2cccc(F)c2)sc1C(=O)N[C@H]1CCCNC1 [AZD-7762]	> 2000

Each compound was assayed on KM-H2 (assay: cells). Conditions: Homo sapiens, KM-H2.
Format: functional, cell-based, Homo sapiens
Description: SANGER: Inhibition of human KM-H2 cell growth in a cell viability assay.

SMILES	IC50 [nM]
NC(=O)Nc1cc(-c2cccc(F)c2)sc1C(=O)N[C@H]1CCCNC1 [AZD-7762]	1220

These compounds were tested on KURAMOCHI (assay: cells). Conditions: Homo sapiens, KURAMOCHI.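 Note: growth inhibition of KURAMOCHI cells, read out with a cell viability assay.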
Format: functional, cell-based, Homo sapiens
Description: SANGER: Inhibition of human KURAMOCHI cell growth in a cell viability assay.

SMILES	IC50 [nM]
NC(=O)Nc1cc(-c2cccc(F)c2)sc1C(=O)N[C@H]1CCCNC1 [AZD-7762]	> 2000

These compounds were tested on L-363 (assay: cells). Conditions: Homo sapiens, L-363.
Format: functional, cell-based, Homo sapiens
Description: SANGER: Inhibition of human L-363 cell growth in a cell viability assay.

SMILES	IC50 [nM]
NC(=O)Nc1cc(-c2cccc(F)c2)sc1C(=O)N[C@H]1CCCNC1 [AZD-7762]	73.9

The compounds below were run on LAMA-84 (assay: cells). Conditions: Homo sapiens, LAMA-84.
Format: functional, cell-based, Homo sapiens
Description: SANGER: Inhibition of human LAMA-84 cell growth in a cell viability assay.

SMILES	IC50 [nM]
NC(=O)Nc1cc(-c2cccc(F)c2)sc1C(=O)N[C@H]1CCCNC1 [AZD-7762]	165

Each compound was assayed on LB2241-RCC (assay: cells). Conditions: Homo sapiens, LB2241-RCC.
Format: functional, cell-based, Homo sapiens
Description: SANGER: Inhibition of human LB2241-RCC cell growth in a cell viability assay.

SMILES	IC50 [nM]
NC(=O)Nc1cc(-c2cccc(F)c2)sc1C(=O)N[C@H]1CCCNC1 [AZD-7762]	61

Each compound was assayed on LOX IMVI (assay: cells). Conditions: Homo sapiens, LOX IMVI.
Format: functional, cell-based, Homo sapiens
Description: SANGER: Inhibition of human LOXIMVI cell growth in a cell viability assay.

SMILES	IC50 [nM]
NC(=O)Nc1cc(-c2cccc(F)c2)sc1C(=O)N[C@H]1CCCNC1 [AZD-7762]	429

The compounds below were run on LS-513 (assay: cells). Conditions: Homo sapiens, LS-513.
Format: functional, cell-based, Homo sapiens
Description: SANGER: Inhibition of human LS-513 cell growth in a cell viability assay.

SMILES	IC50 [nM]
NC(=O)Nc1cc(-c2cccc(F)c2)sc1C(=O)N[C@H]1CCCNC1 [AZD-7762]	749

Each compound was assayed on MHH-PREB-1 (assay: cells). Conditions: Homo sapiens, MHH-PREB-1.
Format: functional, cell-based, Homo sapiens
Description: SANGER: Inhibition of human MHH-PREB-1 cell growth in a cell viability assay.

SMILES	IC50 [nM]
NC(=O)Nc1cc(-c2cccc(F)c2)sc1C(=O)N[C@H]1CCCNC1 [AZD-7762]	34.4

These compounds were tested on MV4-11 (assay: cells). Conditions: Homo sapiens, MV4-11.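 Note: cell viability readout measuring growth inhibition of human MV-4-11 cells.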
Format: functional, cell-based, Homo sapiens, MV-4-11
Description: SANGER: Inhibition of human MV-4-11 cell growth in a cell viability assay.

SMILES	IC50 [nM]
NC(=O)Nc1cc(-c2cccc(F)c2)sc1C(=O)N[C@H]1CCCNC1 [AZD-7762]	< 7.81

What follows are compounds tested on MZ7-mel (assay: cells). Conditions: Homo sapiens, MZ7-mel.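 Note: growth inhibition of human MZ7-mel cells, measured by a cell viability assay.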
Format: functional, cell-based, Homo sapiens
Description: SANGER: Inhibition of human MZ7-mel cell growth in a cell viability assay.

SMILES	IC50 [nM]
NC(=O)Nc1cc(-c2cccc(F)c2)sc1C(=O)N[C@H]1CCCNC1 [AZD-7762]	347

What follows are compounds tested on Mo (assay: cells). Conditions: Homo sapiens, Mo.
Format: functional, cell-based, Homo sapiens
Description: SANGER: Inhibition of human Mo-T cell growth in a cell viability assay.

SMILES	IC50 [nM]
NC(=O)Nc1cc(-c2cccc(F)c2)sc1C(=O)N[C@H]1CCCNC1 [AZD-7762]	> 2000

What follows are compounds tested on NCI-H1155 (assay: cells). Conditions: Homo sapiens, NCI-H1155.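 Note: cell growth inhibition measured by a viability assay.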
Format: functional, cell-based, Homo sapiens
Description: SANGER: Inhibition of human NCI-H1155 cell growth in a cell viability assay.

SMILES	IC50 [nM]
NC(=O)Nc1cc(-c2cccc(F)c2)sc1C(=O)N[C@H]1CCCNC1 [AZD-7762]	739

What follows are compounds tested on NCI-H1299 (assay: cells). Conditions: Homo sapiens.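 Note: growth inhibition of human NCI-H1299 cells, read out by a cell viability assay.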
Format: functional, cell-based
Description: SANGER: Inhibition of human NCI-H1299 cell growth in a cell viability assay.

SMILES	IC50 [nM]
NC(=O)Nc1cc(-c2cccc(F)c2)sc1C(=O)N[C@H]1CCCNC1 [AZD-7762]	556

The compounds below were run on NCI-H1650 (assay: cells). Conditions: Homo sapiens, NCI-H1650.
Format: functional, cell-based, Homo sapiens
Description: SANGER: Inhibition of human NCI-H1650 cell growth in a cell viability assay.

SMILES	IC50 [nM]
NC(=O)Nc1cc(-c2cccc(F)c2)sc1C(=O)N[C@H]1CCCNC1 [AZD-7762]	1040

What follows are compounds tested on NCI-H226 (assay: cells). Conditions: Homo sapiens, NCI-H226.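 Note: cell viability read-out used to gauge growth inhibition of the cells.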
Format: functional, cell-based, Homo sapiens
Description: SANGER: Inhibition of human NCI-H226 cell growth in a cell viability assay.

SMILES	IC50 [nM]
NC(=O)Nc1cc(-c2cccc(F)c2)sc1C(=O)N[C@H]1CCCNC1 [AZD-7762]	> 2000

What follows are compounds tested on NCI-H23 (assay: cells). Conditions: Homo sapiens, NCI-H23.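 Note: cell viability assay measuring growth inhibition of NCI-H23 cells.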
Format: functional, cell-based, Homo sapiens
Description: SANGER: Inhibition of human NCI-H23 cell growth in a cell viability assay.

SMILES	IC50 [nM]
NC(=O)Nc1cc(-c2cccc(F)c2)sc1C(=O)N[C@H]1CCCNC1 [AZD-7762]	248

Each compound was assayed on NCI-H720 (assay: cells). Conditions: Homo sapiens, NCI-H720.
Format: functional, cell-based, Homo sapiens
Description: SANGER: Inhibition of human NCI-H720 cell growth in a cell viability assay.

SMILES	IC50 [nM]
NC(=O)Nc1cc(-c2cccc(F)c2)sc1C(=O)N[C@H]1CCCNC1 [AZD-7762]	402

Each compound was assayed on NCI-N87 (assay: cells). Conditions: Homo sapiens.
Format: functional, cell-based
Description: SANGER: Inhibition of human NCI-N87 cell growth in a cell viability assay.

SMILES	IC50 [nM]
NC(=O)Nc1cc(-c2cccc(F)c2)sc1C(=O)N[C@H]1CCCNC1 [AZD-7762]	846

Each compound was assayed on SNU-5 (assay: cells). Conditions: Homo sapiens, SNU-5.
Format: functional, cell-based, Homo sapiens
Description: SANGER: Inhibition of human NCI-SNU-5 cell growth in a cell viability assay.

SMILES	IC50 [nM]
NC(=O)Nc1cc(-c2cccc(F)c2)sc1C(=O)N[C@H]1CCCNC1 [AZD-7762]	> 2000

Each compound was assayed on NH-12 (assay: cells). Conditions: Homo sapiens, NH-12.
Format: functional, cell-based, Homo sapiens
Description: SANGER: Inhibition of human NH-12 cell growth in a cell viability assay.

SMILES	IC50 [nM]
NC(=O)Nc1cc(-c2cccc(F)c2)sc1C(=O)N[C@H]1CCCNC1 [AZD-7762]	357

The compounds below were run on ONS-76 (assay: cells). Conditions: Homo sapiens, ONS-76.
Format: functional, cell-based, Homo sapiens
Description: SANGER: Inhibition of human ONS-76 cell growth in a cell viability assay.

SMILES	IC50 [nM]
NC(=O)Nc1cc(-c2cccc(F)c2)sc1C(=O)N[C@H]1CCCNC1 [AZD-7762]	62

What follows are compounds tested on OS-RC-2 (assay: cells). Conditions: Homo sapiens, OS-RC-2.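 Note: growth inhibition of human OS-RC-2 cells, measured by a cell viability assay.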
Format: functional, cell-based, Homo sapiens
Description: SANGER: Inhibition of human OS-RC-2 cell growth in a cell viability assay.

SMILES	IC50 [nM]
NC(=O)Nc1cc(-c2cccc(F)c2)sc1C(=O)N[C@H]1CCCNC1 [AZD-7762]	620

These compounds were tested on RPMI-8866 (assay: cells). Conditions: Homo sapiens, RPMI-8866.
Format: functional, cell-based, Homo sapiens
Description: SANGER: Inhibition of human RPMI-8866 cell growth in a cell viability assay.

SMILES	IC50 [nM]
NC(=O)Nc1cc(-c2cccc(F)c2)sc1C(=O)N[C@H]1CCCNC1 [AZD-7762]	139

Each compound was assayed on SBC-1 (assay: cells). Conditions: Homo sapiens, SBC-1.
Format: functional, cell-based, Homo sapiens
Description: SANGER: Inhibition of human SBC-1 cell growth in a cell viability assay.

SMILES	IC50 [nM]
NC(=O)Nc1cc(-c2cccc(F)c2)sc1C(=O)N[C@H]1CCCNC1 [AZD-7762]	> 2000

What follows are compounds tested on SCC-15 (assay: cells). Conditions: Homo sapiens, SCC-15.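 Note: growth inhibition of SCC-15 cells, read out with a cell viability assay.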
Format: functional, cell-based, Homo sapiens
Description: SANGER: Inhibition of human SCC-15 cell growth in a cell viability assay.

SMILES	IC50 [nM]
NC(=O)Nc1cc(-c2cccc(F)c2)sc1C(=O)N[C@H]1CCCNC1 [AZD-7762]	> 2000

The compounds below were run on SK-N-FI (assay: cells). Conditions: Homo sapiens, SK-N-FI.
Format: functional, cell-based, Homo sapiens
Description: SANGER: Inhibition of human SK-N-FI cell growth in a cell viability assay.

SMILES	IC50 [nM]
NC(=O)Nc1cc(-c2cccc(F)c2)sc1C(=O)N[C@H]1CCCNC1 [AZD-7762]	1490

What follows are compounds tested on SK-PN-DW (assay: cells). Conditions: Homo sapiens, SK-PN-DW.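 Note: growth inhibition measured with a viability assay on these cells.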
Format: functional, cell-based, Homo sapiens
Description: SANGER: Inhibition of human SK-PN-DW cell growth in a cell viability assay.

SMILES	IC50 [nM]
NC(=O)Nc1cc(-c2cccc(F)c2)sc1C(=O)N[C@H]1CCCNC1 [AZD-7762]	119

Each compound was assayed on SK-UT-1 (assay: cells). Conditions: Homo sapiens, SK-UT-1.
Format: functional, cell-based, Homo sapiens
Description: SANGER: Inhibition of human SK-UT-1 cell growth in a cell viability assay.

SMILES	IC50 [nM]
NC(=O)Nc1cc(-c2cccc(F)c2)sc1C(=O)N[C@H]1CCCNC1 [AZD-7762]	186

The compounds below were run on 697 (assay: cells). Conditions: Homo sapiens.
Format: functional, cell-based, Homo sapiens
Description: SANGER: Inhibition of human 697 cell growth in a cell viability assay.

SMILES	IC50 [nM]
NC(=O)Nc1cc(-c2cccc(F)c2)sc1C(=O)N[C@H]1CCCNC1 [AZD-7762]	111

What follows are compounds tested on 8-MG-BA (assay: cells). Conditions: Homo sapiens, 8-MG-BA.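 Note: growth inhibition of 8-MG-BA cells, read out with a cell viability assay.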
Format: functional, cell-based, Homo sapiens
Description: SANGER: Inhibition of human 8-MG-BA cell growth in a cell viability assay.

SMILES	IC50 [nM]
NC(=O)Nc1cc(-c2cccc(F)c2)sc1C(=O)N[C@H]1CCCNC1 [AZD-7762]	258

These compounds were tested on A498 (assay: cells). Conditions: Homo sapiens, A498.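 Note: growth inhibition of human A498 cells, read out with a cell viability assay.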
Format: functional, cell-based, Homo sapiens
Description: SANGER: Inhibition of human A498 cell growth in a cell viability assay.

SMILES	IC50 [nM]
NC(=O)Nc1cc(-c2cccc(F)c2)sc1C(=O)N[C@H]1CCCNC1 [AZD-7762]	1730

These compounds were tested on ACN (assay: cells). Conditions: Homo sapiens, ACN.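 Note: growth inhibition of the human ACN cell line, read out via cell viability testing.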
Format: functional, cell-based, Homo sapiens
Description: SANGER: Inhibition of human ACN cell growth in a cell viability assay.

SMILES	IC50 [nM]
NC(=O)Nc1cc(-c2cccc(F)c2)sc1C(=O)N[C@H]1CCCNC1 [AZD-7762]	172

What follows are compounds tested on BB30-HNC (assay: cells). Conditions: Homo sapiens, BB30-HNC.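 Note: growth inhibition of the cultured cell line, read out by a cell viability assay.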
Format: functional, cell-based, Homo sapiens
Description: SANGER: Inhibition of human BB30-HNC cell growth in a cell viability assay.

SMILES	IC50 [nM]
NC(=O)Nc1cc(-c2cccc(F)c2)sc1C(=O)N[C@H]1CCCNC1 [AZD-7762]	315

Each compound was assayed on C8166 (assay: cells). Conditions: Homo sapiens, C8166.
Format: functional, cell-based, Homo sapiens
Description: SANGER: Inhibition of human C8166 cell growth in a cell viability assay.

SMILES	IC50 [nM]
NC(=O)Nc1cc(-c2cccc(F)c2)sc1C(=O)N[C@H]1CCCNC1 [AZD-7762]	1910

These compounds were tested on no-10 (assay: cells). Conditions: Homo sapiens.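 Note: growth inhibition of no-10 cells, read out with a cell viability assay.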
Format: functional, cell-based, Homo sapiens
Description: SANGER: Inhibition of human no-10 cell growth in a cell viability assay.

SMILES	IC50 [nM]
NC(=O)Nc1cc(-c2cccc(F)c2)sc1C(=O)N[C@H]1CCCNC1 [AZD-7762]	> 2000

Each compound was assayed on CCRF-CEM (assay: cells). Conditions: Homo sapiens, CCRF-CEM.
Format: functional, cell-based, Homo sapiens
Description: SANGER: Inhibition of human CCRF-CEM cell growth in a cell viability assay.

SMILES	IC50 [nM]
NC(=O)Nc1cc(-c2cccc(F)c2)sc1C(=O)N[C@H]1CCCNC1 [AZD-7762]	292
